Reference: patent US8378104B2 (OSI Pharmaceuticals, LLC, priority 2010, dated 2013)
Structures can show the parent of a compound that is named as a salt. Where two headings read alike, the source gives them in different places.

Target: T1, TAK1-TAB1 fusion protein (Homo sapiens, UniProt O43318)
T1 construct: purchased Carna
T1 sequence (O43318 with tags, fused parts or gaps limits assumed): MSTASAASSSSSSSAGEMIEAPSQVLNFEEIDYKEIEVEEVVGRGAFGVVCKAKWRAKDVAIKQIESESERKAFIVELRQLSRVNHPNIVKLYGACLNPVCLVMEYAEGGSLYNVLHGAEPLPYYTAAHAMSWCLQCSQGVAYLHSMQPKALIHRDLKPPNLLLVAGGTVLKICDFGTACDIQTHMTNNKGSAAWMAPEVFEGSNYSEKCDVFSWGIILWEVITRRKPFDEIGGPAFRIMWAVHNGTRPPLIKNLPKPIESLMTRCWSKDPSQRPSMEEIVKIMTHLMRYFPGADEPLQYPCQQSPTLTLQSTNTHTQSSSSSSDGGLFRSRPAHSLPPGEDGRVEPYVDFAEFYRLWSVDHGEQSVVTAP
Test: TAK1 biochemical assay (AlphaScreen, GST-MAP2K7 substrate)

[1] = TAK1-TAB1 fusion protein, GST-MAP2K7 substrate, read-out: mean TAK1 IC50 (Col. A)

Row | SMILES | IC50 [1] [nM] | IC50 [nM]
1 | Nc1ncc(-c2cnn(C3CCNCC3)c2)c2cc(-c3cccc4c3sc3ccccc34)oc12 [Example 37, 2-(dibenzo[b,d]thiophen-4-yl)-4-[1-(piperidin-4-yl)-1H-pyrazol-4-yl]furo[2,3-c]pyridine-7-amine] | 100 to 1000 | 
2 | Nc1ncc(-c2cnn(C3CCNCC3)c2)c2cc(-c3ccc4[nH]cnc4c3)oc12 [Example 39, 2-(1H-benzimidazol-5-yl)-4-[1-(piperidin-4-yl)-1H-pyrazol-4-yl]furo[2,3-c]pyridine-7-amine] | 100 to 1000 | 
3 | Nc1ncc(-c2cnn(C3CCNCC3)c2)c2cc(-c3cccc(-c4nnn[nH]4)c3)oc12 [Example 40, 4-[1-(piperidin-4-yl)-1H-pyrazol-4-yl]-2-[3-(1H-tetrazol-5-yl)phenyl]furo[2,3-c]pyridine-7-amine] | 1000 to 10000 | 
4 | Nc1ncc(-c2cnn(C3CCNCC3)c2)c2cc(-c3cccc4cc[nH]c34)oc12 [Example 42, 2-(1H-indol-7-yl)-4-[1-(piperidin-4-yl)-1H-pyrazol-4-yl]furo[2,3-c]pyridin-7-amine] | 100 to 1000 | 
5 | Nc1cc(-c2cc3c(-c4cnn(C5CCNCC5)c4)cnc(N)c3o2)cnc1Cl [Example 43, 2-(5-amino-6-chloropyridin-3-yl)-4-[1-(piperidin-4-yl)-1H-pyrazol-4-yl]furo[2,3-c]pyridine-7-amine] | 100 to 1000 | 
6 | Nc1ncc(-c2cnn(C3CCNCC3)c2)c2cc(-c3cccc4c3NC(=O)C4)oc12 [Example 44, 7-{7-amino-4-[1-(piperidin-4-yl)-1H-pyrazol-4-yl]furo[2,3-c]pyridine-2-yl}-1,3-dihydro-2H-indol-2-one] | 1000 to 10000 | 
7 | Nc1ncc(-c2cnn(C3CCNCC3)c2)c2cc(-c3cccc4cn[nH]c34)oc12 [Example 45, 2-(1H-indazol-7-yl)-4-[1-(piperidin-4-yl)-1H-pyrazol-4-yl]furo[2,3-c]pyridin-7-amine] | 100 to 1000 | 
8 | Nc1ncc(-c2cnn(C3CCNCC3)c2)c2cc(-c3cccc4nn[nH]c34)oc12 [Example 46, 2-(1H-benzotriazol-7-yl)-4-[1-(piperidin-4-yl)-1H-pyrazol-4-yl]furo[2,3-c]pyridine-7-amine] | 1000 to 10000 | 
9 | COC(=O)c1cc2cc(-c3cc4c(-c5cnn(C6CCNCC6)c5)cnc(N)c4o3)ccc2s1 [Example 47, methyl 5-{7-amino-4-[1-(piperidin-4-yl)-1H-pyrazol-4-yl]furo[2,3-c]pyridine-2-yl}-1-benzothiophene-2-carboxylate] | 1000 to 10000 | 
10 | COC(=O)c1cc2cccc(-c3cc4c(-c5cnn(C6CCNCC6)c5)cnc(N)c4o3)c2s1 [Example 48, methyl 7-{7-amino-4-[1-(piperidin-4-yl)-1H-pyrazol-4-yl]furo[2,3-c]pyridine-2-yl}-1-benzothiophene-2-carboxylate] | 100 to 1000 | 
11 | Nc1ncc(-c2cnn(C3CCNCC3)c2)c2cc(C3=CCNCC3)oc12 [Example 49, 4-[1-(piperidin-4-yl)-1H-pyrazol-4-yl]-2-(1,2,3,6-tetrahydropyridin-4-yl)furo[2,3-c]pyridin-7-amine dihydrochloride] | 1000 to 10000 | 
12 | Nc1ncc(-c2cnn(C3CCNCC3)c2)c2cc(C3CCNCC3)oc12 [Example 54, 2-(piperidin-4-yl)-4-[1-(piperidin-4-yl)-1H-pyrazol-4-yl]furo[2,3-c]pyridin-7-amine] | > 10000 | 
13 | Cn1cc(-c2cnc(N)c3oc(-c4ccccc4)cc23)cn1 [Example 56, 4-(1-methyl-1H-pyrazol-4-yl)-2-phenylfuro[2,3-d]pyridin-7-amine] | > 10000 | 
14 | CN1CCC(n2cc(-c3cnc(N)c4oc(-c5cccc6ccsc56)cc34)cn2)CC1 [Example 57, 2-(1-benzothiophen-7-yl)-4-[1-(1-methylpiperidin-4-yl)-1H-pyrazol-4-yl]furo[2,3-c]pyridin-7-amine] | 1000 to 10000 | 
15 | CCC(=O)N1CCC(n2cc(-c3cnc(N)c4oc(-c5cccc6ccsc56)cc34)cn2)CC1 [Example 58, 1-(4-{4-[7-amino-2-(1-benzothiophen-7-yl)furo[2,3-c]pyridin-4-yl]-1H-pyrazol-1-yl}piperidin-1-yl)propan-1-one] | 1000 to 10000 | 
16 | CCOC(=O)Cn1cc(-c2cnc(N)c3oc(-c4cccc5cnccc45)cc23)cn1 [Example 59, ethyl {4-[7-amino-2-(isoquinolin-5-yl)furo[2,3-c]pyridin-4-yl]-1H-pyrazol-1-yl}acetate] | 1000 to 10000 | 
17 | CC1(C)OCC(Cn2cc(-c3cnc(N)c4oc(-c5cccc6cnccc56)cc34)cn2)O1 (centres unmarked) [Example 61, 4-{1-[(2,2-dimethyl-1,3-dioxolan-4-yl)methyl]-1H-pyrazol-4-yl}-2-(isoquinolin-5-yl)furo[2,3-c]pyridin-7-amine] | 1000 to 10000 | 
18 | Nc1ncc(-c2cnn(C3CNC3)c2)c2cc(-c3cccc4cnccc34)oc12 [Example 64, 4-[1-(azetidin-3-yl)-1H-pyrazol-4-yl]-2-(isoquinolin-5-yl)furo[2,3-c]pyridin-7-amine] | 100 to 1000 | 

Row | SMILES | IC50 [1] [nM] | IC50 [nM]
19 | Nc1ncc(-c2cnn(CC(O)CO)c2)c2cc(-c3cccc4cnccc34)oc12 (centres unmarked) [Example 66, 3-{4-[7-amino-2-(isoquinolin-5-yl)furo[2,3-c]pyridin-4-yl]-1H-pyrazol-1-yl}propane-1,2-diol] | 1000 to 10000 | 
20 | Nc1ncc(-c2cnn(CCO)c2)c2cc(-c3cccc4cnccc34)oc12 [Example 67, 2-{4-[7-amino-2-(isoquinolin-5-yl)furo[2,3-c]pyridin-4-yl]-1H-pyrazol-1-yl}ethanol] | 1000 to 10000 | 
21 | CCn1cc(-c2cnc(N)c3oc(-c4cccc5cnccc45)cc23)cn1 [Example 71, 4-(1-ethyl-1H-pyrazol-4-yl)-2-(isoquinolin-5-yl)furo[2,3-c]pyridin-7-amine] | 1000 to 10000 | 
22 | Nc1ncc(-c2cnn(C3CC=CC3)c2)c2cc(-c3cccc4cnccc34)oc12 [Example 72, 4-[1-(cyclopent-3-en-1-yl)-1H-pyrazol-4-yl]-2-(isoquinolin-5-yl)furo[2,3-c]pyridin-7-amine] | 100 to 1000 | 
23 | Nc1ncc(-c2cnn(C3CCCCC3)c2)c2cc(-c3cccc4cnccc34)oc12 [Example 73, 4-(1-cyclohexyl-1H-pyrazol-4-yl)-2-(isoquinolin-5-yl)furo[2,3-c]pyridin-7-amine] | 1000 to 10000 | 
24 | C[C@]1(O)CC[C@H](n2cc(-c3cnc(N)c4oc(-c5cccc6cnccc56)cc34)cn2)CC1 [Example 75, trans-4-{4-[7-amino-2-(isoquinolin-5-yl)furo[2,3-c]pyridin-4-yl]-1H-pyrazol-1-yl}-1-methylcyclohexanol] | 100 to 1000 | 
25 | CC(=O)N1CCC(n2cc(-c3cnc(N)c4oc(C5=CCNCC5)cc34)cn2)CC1 [Example 95, 1-(4-{4-[7-amino-2-(1,2,3,6-tetrahydropyridin-4-yl)furo[2,3-c]pyridin-4-yl]-1H-pyrazol-1-yl}piperidin-1-yl)ethanone hydrochloride] |  | 100 to 1000
26 | CC(=O)N1CCC(n2cc(-c3cnc(N)c4oc(-c5ccc6cn[nH]c6c5)cc34)cn2)CC1 [Example 99, 1-(4-{4-[7-amino-2-(1H-indazol-6-yl)furo[2,3-c]pyridin-4-yl]-1H-pyrazol-1-yl}piperidin-1-yl)ethanone] | 100 to 1000 | 
27 | CC(=O)N1CCC(n2cc(-c3cnc(N)c4oc(-c5ccc6c(c5)C(=O)NC6=O)cc34)cn2)CC1 [Example 100, 5-{4-[1-(1-acetylpiperidin-4-yl)-1H-pyrazol-4-yl]-7-aminofuro[2,3-c]pyridin-2-yl}-1H-isoindole-1,3(2H)-dione] | 1000 to 10000 | 
28 | CC(=O)N1CCC(n2cc(-c3cnc(N)c4oc(-c5cccc(S(N)(=O)=O)c5)cc34)cn2)CC1 [Example 102, 3-{4-[1-(1-acetylpiperidin-4-yl)-1H-pyrazol-4-yl]-7-aminofuro[2,3-c]pyridin-2-yl}benzenesulfonamide] | 1000 to 10000 | 
29 | CC(=O)N1CCC(n2cc(-c3cnc(N)c4oc(-c5ccc6c(c5)CC(=O)N6)cc34)cn2)CC1 [Example 103, 5-{4-[1-(1-acetylpiperidin-4-yl)-1H-pyrazol-4-yl]-7-aminofuro[2,3-c]pyridin-2-yl}-1,3-dihydro-2H-indol-2-one] | 1000 to 10000 | 
30 | CC(=O)N1CCC(n2cc(-c3cnc(N)c4oc(-c5ccc(N)c(C#N)c5)cc34)cn2)CC1 [Example 104, 5-{4-[1-(1-acetylpiperidin-4-yl) 1H-pyrazol-4-yl]-7-aminofuro[2,3-c]pyridin-2-yl}-2-aminobenzonitrile] | 1000 to 10000 | 
31 | CC(=O)N1CCC(n2cc(-c3cnc(N)c4oc(-c5ccc(Cl)c(C(=O)O)c5)cc34)cn2)CC1 [Example 110, 5-{4-[1-(1-acetylpiperidin-4-yl)-1H-pyrazol-4-yl]-7-aminofuro[2,3-c]pyridin-2-yl}-2-chlorobenzoic acid hydrochloride] | 1000 to 10000 | 
32 | CC(=O)N1CCC(n2cc(-c3cnc(N)c4oc(-c5cccc(N(C)C)c5)cc34)cn2)CC1 [Example 116] | 1000 to 10000 | 
33 | CC(=O)N1CCC(n2cc(-c3cnc(N)c4oc(-c5ccc(N6CCCCC6)nc5)cc34)cn2)CC1 [Example 118, 1-[4-(4-{7-amino-2-[6-(piperidin-1-yl)pyridin-3-yl]furo[2,3-c]pyridin-4-yl}-1H-pyrazol-1-yl)piperidin-1-yl]ethanone] | > 10000 | 
34 | CC(=O)N1CCC(n2cc(-c3cnc(N)c4oc(-c5ccc([N+](=O)[O-])nc5)cc34)cn2)CC1 [Example 119, 1-(4-{4-[7-amino-2-(6-nitropyridin-3-yl)furo[2,3-c]pyridin-4-yl]-1H-pyrazol-1-yl}piperidin-1-yl)ethanone] | 1000 to 10000 | 
35 | CC(=O)N1CCC(n2cc(-c3cnc(N)c4oc(-c5ccc(NS(C)(=O)=O)cc5)cc34)cn2)CC1 [Example 121, N-(4-{4-[1-(1-acetylpiperidin-4-yl)-1H-pyrazol-4-yl]-7-aminofuro[2,3-c]pyridin-2-yl}phenyl)methanesulfonamide] | 1000 to 10000 | 
